Reference: US20230114241A1, “METHODS OF TREATING EPILEPSY USING THE SAME” (Trevena, Inc., priority 2019, published 2023)

What was measured:
[1] = biological target: T1, human sphingosine-1-phosphate receptor 1 (S1P1) (Homo sapiens, UniProt P21453); assay: β-Arrestin2 recruitment assay (PathHunter), S1P1 CHO-K1 cells; assay type: cell-based; details: for Emax: efficacy normalized to maximum efficacy of fingolimod, read-out: hS1P1 B-arrestin2 SPAN; for EC50: β-arrestin2 recruitment, read-out: hS1P1 B-arrestin2 pEC50 (converted)
Procedure: Stable clonal Chinese hamster ovary K1 (CHO-K1) cells co-expressing EA-β-arrestin2 and the human sphingosine-1-phosphate receptor 1 (NM_001400, S1P1) with a C-terminal Prolink™ tag were purchased from DiscoverX corporation (Cat #: 93-0207C2).
Cell lines were cultured in AssayComplete™ Media 6 (DiscoverX Corporation, Cat #: 920018GF2) at 37° C. and 5% CO2 in a humidified CO2 and temperature-controlled incubator. To begin assay plating, cells were washed with Dulbecco's phosphate buffered saline (CellGro, Cat #: 21-031-CV) and lifted from the culturing flask by incubation (37° C., 5 min) with CellStripper (Cellgro, Cat #: 25-056-CI). […] Plated cells were incubated overnight at 37° C. and 5% CO2 in a humidified CO2 and temperature-controlled incubator.
Agonist-promoted β-arrestin2 recruitment to the sphingosine-1-phosphate 1 receptor was determined using the β-arrestin PathHunter® Detection kit (DiscoverX Corporation, Cat #: 93-0001). […] In cells that stably express these fusion proteins, stimulation with a cognate agonist results in the interaction of β-arrestin2 and the Prolink™-tagged GPCR. This allows the complementation of the two β-galactosidase fragments and results in the formation of a functional enzyme with β-galactosidase activity. […] Following a 60 minute incubation at 37° C. and 5% CO2 in a humidified CO2 and temperature-controlled incubator, the components of the β-arrestin PathHunter® Detection kit were added as per the manufacturer's instructions. After an hour incubation at room temperature, plates were analyzed by a BMG PheraStar microplate reader.
These values are normalized to fingolimod, a known agonist of the sphingosine-1-phosphate 1 receptor.
Target sequence in this assay (P21453 whole entry): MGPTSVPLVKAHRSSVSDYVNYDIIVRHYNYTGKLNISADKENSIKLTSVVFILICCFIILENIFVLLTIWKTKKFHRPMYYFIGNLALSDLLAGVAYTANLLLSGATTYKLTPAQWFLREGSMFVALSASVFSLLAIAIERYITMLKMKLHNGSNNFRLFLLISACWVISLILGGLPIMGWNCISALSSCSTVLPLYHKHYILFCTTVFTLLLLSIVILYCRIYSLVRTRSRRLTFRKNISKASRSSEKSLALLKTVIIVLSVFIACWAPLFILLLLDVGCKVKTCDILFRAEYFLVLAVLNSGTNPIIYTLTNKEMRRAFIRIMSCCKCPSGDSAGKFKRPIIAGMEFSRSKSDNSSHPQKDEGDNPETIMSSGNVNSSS
Target sequence in this assay (P32121 whole entry partner): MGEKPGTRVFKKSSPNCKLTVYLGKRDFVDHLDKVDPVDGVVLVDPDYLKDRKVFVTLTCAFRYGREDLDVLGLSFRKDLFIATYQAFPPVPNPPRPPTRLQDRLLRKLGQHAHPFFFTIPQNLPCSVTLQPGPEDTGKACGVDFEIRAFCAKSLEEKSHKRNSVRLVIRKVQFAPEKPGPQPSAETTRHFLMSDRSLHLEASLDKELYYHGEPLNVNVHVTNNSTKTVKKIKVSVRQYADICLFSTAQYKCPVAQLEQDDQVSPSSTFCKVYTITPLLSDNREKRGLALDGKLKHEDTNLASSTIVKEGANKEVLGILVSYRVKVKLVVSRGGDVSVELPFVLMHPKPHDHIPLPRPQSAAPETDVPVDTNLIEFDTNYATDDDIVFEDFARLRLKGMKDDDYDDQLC

[2] = biological target: T1, human sphingosine-1-phosphate receptor 1 (S1P1); assay: Inhibition of cAMP production (HTRF cAMP HiRange), S1P1 CHO-K1 cells; assay type: cell-based; details: for Emax: CHO-K1, efficacy normalized to maximum efficacy of fingolimod, read-out: hS1P1 CAMP SPAN; for EC50: read-out: hS1P1 CAMP pEC50 (converted)
Procedure, shortened: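 Intracellular cAMP changes read by TR-FRET (HTRF HiRange, 1 h room temperature) after 30 min compound exposure at 37 °C. Cells: overnight-plated CHO-K1 stably expressing tagged human S1P1 with EA-β-arrestin2. Responses normalized to fingolimod.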
Target sequence in this assay (P21453 whole entry): as the sequence (P21453 whole entry) above

[3] = inhibition of cAMP production, S1P1
[4] = CHO-K1, β-arrestin2 recruitment
[5] = inhibition of cAMP production, potency

SMILES: CC(C)n1nnc2cc(-c3nc(-c4ccc5nonc5c4)no3)ccc21 [Compound 498, 5-{5-[1-(propan-2-yl)-1H-1,2,3-benzotriazol-5-yl]-1,2,4-oxadiazol-3-yl}-2,1,3-benzoxadiazole]
- Emax ([1]; CHO-K1): < 75%
- EC50 ([1]; S1P1): > 10 µM
- Emax [2]: > 75%
- EC50 [2, 3]: < 0.316 µM

SMILES: CCC1(CC)CC(=O)c2cc(-c3nc(-c4ccnc(C(N)=O)c4)no3)ccc2O1 [Compound 555, 4-(5-(2,2-diethyl-4-oxochroman-6-yl)-1,2,4-oxadiazol-3-yl)picolinamide]
- Emax ([1]; CHO-K1): < 75%
- EC50 ([1]; S1P1): < 10 µM
- Emax [2]: < 75%
- EC50 [2, 3]: < 0.316 µM

SMILES: CCC1(CC)CC(=O)c2cc(-c3ncc(-c4cccnc4)cn3)ccc2O1 [Compound 509, 2,2-diethyl-6-(5-(pyridin-3-yl)pyrimidin-2-yl)chroman-4-one]
- Emax ([1]; CHO-K1): > 75%
- EC50 ([1]; S1P1): > 10 µM
- Emax [2]: < 75%
- EC50 [2, 3]: > 0.316 µM

SMILES: O=C1CC2(CCCC2)Oc2ccc(-c3nc(-c4cccnc4)no3)cc21 [Compound 298, 6-[3-(pyridin-3-yl)-1,2,4-oxadiazol-5-yl]-3,4-dihydrospiro[1-benzopyran-2,1′-cyclopentane]-4-one]
- Emax [1, 4]: < 75%
- EC50 ([1]; potency): < 10 µM
- Emax ([2]; inhibition of cAMP production): > 75%
- EC50 [2, 5]: > 0.316 µM

SMILES: CC(C)n1ccc2cc(-c3noc(-c4cccc(F)c4)n3)ccc21 [Compound 394, 5-(3-fluorophenyl)-3-(1-isopropyl-1H-indol-5-yl)-1,2,4-oxadiazole]
- Emax ([1]; CHO-K1): < 75%
- EC50 ([1]; S1P1): < 10 µM
- Emax [2]: < 75%
- EC50 [2, 3]: > 0.316 µM

SMILES: COc1cccc(-c2csc(-c3ccc4c(ccn4C(C)C)c3)n2)c1 [Compound 405, 2-(1-isopropylindol-5-yl)-4-(3-methoxy-phenyl)thiazole]
- Emax ([1]; CHO-K1): < 75%
- EC50 ([1]; S1P1): > 10 µM
- Emax [2]: < 75%
- EC50 [2, 3]: > 0.316 µM

SMILES: CC(C)n1nnc2cc(-c3noc(-c4ccccc4Br)n3)ccc21 [Compound 43, 5-(2-bromophenyl)-3-(1-isopropyl-1H-benzo[d][1,2,3]triazol-5-yl)-1,2,4-oxadiazole]
- Emax [1, 4]: > 75%
- EC50 ([1]; potency): < 10 µM
- Emax ([2]; inhibition of cAMP production): > 75%
- EC50 [2, 5]: < 0.316 µM

SMILES: CC(C)n1nnc2cc(-c3ncc(-c4ccc(F)cc4)s3)ccc21 [Compound 37, 5-(4-fluorophenyl)-2-(1-isopropyl-benzotriazol-5-yl)thiazole]
- Emax [1, 4]: < 75%
- EC50 ([1]; potency): > 10 µM
- Emax ([2]; inhibition of cAMP production): < 75%
- EC50 [2, 5]: > 0.316 µM

SMILES: CCCC1CC(=O)c2ccc(-c3nc(-c4cccnc4)no3)cc2O1 (centres unmarked) [Compound 630, 2-propyl-7-[3-(pyridin-3-yl)-1,2,4-oxadiazol-5-yl]-3,4-dihydro-2H-1-benzopyran-4-one]
- Emax ([1]; CHO-K1): < 75%
- EC50 ([1]; S1P1): > 10 µM
- Emax [2]: < 75%
- EC50 [2, 3]: > 0.316 µM

SMILES: Cn1cnc2ccc(-c3nnc(-c4ccc(NCC(F)F)c(C#N)c4)o3)cc21 [Compound 580, 2-[(2,2-difluoro-ethyl)amino]-5-[5-(1-methyl-1H-1,3-benzodiazol-6-yl)-1,3,4-oxadiazol-2-yl]benzonitrile]
- Emax ([1]; CHO-K1): > 75%
- EC50 ([1]; S1P1): < 10 µM
- Emax [2]: > 75%
- EC50 [2, 3]: < 0.316 µM

SMILES: CC(C)(CO)Cn1nnc2cc(-c3noc(-c4cnccc4C(F)(F)F)n3)ccc21 [Compound 529, 2,2-dimethyl-3-(5-(5-(4-(trifluoro-methyl)pyridin-3-yl)-1,2,4-oxadiazol-3-yl)-1H-benzo[d][1,2,3]triazol-1-yl)propan-1-ol]
- Emax ([1]; CHO-K1): < 75%
- EC50 ([1]; S1P1): < 10 µM
- Emax [2]: > 75%
- EC50 [2, 3]: > 0.316 µM

SMILES: Cc1cccc2nc(-c3ccc4c(c3)nnn4CC(C)C)oc12 [Compound 449, 2-(1-isobutyl-1H-benzo[d][1,2,3]triazol-5-yl)-7-methyl-benzo[d]oxazole]
- Emax ([1]; CHO-K1): > 75%
- EC50 ([1]; S1P1): > 10 µM
- Emax [2]: > 75%
- EC50 [2, 3]: > 0.316 µM

SMILES: Brc1ccccc1-c1nc(-c2ccc3c(c2)nnn3Cc2ccncc2)no1 [Compound 48, 5-(2-bromophenyl)-3-(1-(pyridin-4-ylmethyl)-1H-benzo[d][1,2,3]triazol-5-yl)-1,2,4-oxadiazole]
- Emax [1, 4]: < 75%
- EC50 ([1]; potency): > 10 µM
- Emax ([2]; inhibition of cAMP production): < 75%
- EC50 [2, 5]: > 0.316 µM

SMILES: CC1CC(=O)c2ccc(-c3nc(-c4ccncc4)no3)cc2O1 (centres unmarked) [Compound 536, 2-methyl-7-[3-(pyridin-4-yl)-1,2,4-oxadiazol-5-yl]-3,4-dihydro-2H-1-benzopyran-4-one]
- Emax ([1]; CHO-K1): < 75%
- EC50 ([1]; S1P1): < 10 µM
- Emax [2]: < 75%
- EC50 [2, 3]: > 0.316 µM

SMILES: CCC1(CC)CC(=O)c2cc(-c3nc(-c4cccc(OC)n4)no3)ccc2O1 [Compound 553, 2,2-diethyl-6-[3-(6-methoxypyridin-2-yl)-1,2,4-oxadiazol-5-yl]-3,4-dihydro-2H-1-benzopyran-4-one]
- Emax ([1]; CHO-K1): < 75%
- EC50 ([1]; S1P1): < 10 µM
- Emax [2]: > 75%
- EC50 [2, 3]: > 0.316 µM

SMILES: CCC1(CC)CC(=O)c2cc(-c3noc(-c4ccc(NC(C)C)c(C#N)c4)n3)ccc2O1 [Compound 443, 5-(3-(2,2-diethyl-4-oxochroman-6-y)-1,2,4-oxadiazol-5-yl)-2-(isopropyl-amino)benzonitrile]
- Emax ([1]; CHO-K1): < 75%
- EC50 ([1]; S1P1): < 10 µM
- Emax [2]: > 75%
- EC50 [2, 3]: < 0.316 µM

SMILES: CC(C)n1ccc2cc(-c3noc(-c4ccccc4F)n3)ccc21 [Compound 387, 5-(2-fluorophenyl)-3-(1-isopropyl-1H-indol-5-yl)-1,2,4-oxadiazole]
- Emax ([1]; CHO-K1): > 75%
- EC50 ([1]; S1P1): < 10 µM
- Emax [2]: > 75%
- EC50 [2, 3]: > 0.316 µM

SMILES: COc1ccc2oc(-c3ccc4c(c3)nnn4C(C)C)nc2c1 [Compound 425, 2-(1-isopropyl-1H-benzo[d][1,2,3]triazol-5-yl)-5-methoxy-benzo[d]oxazole]
- Emax ([1]; CHO-K1): > 75%
- EC50 ([1]; S1P1): < 10 µM
- Emax [2]: > 75%
- EC50 [2, 3]: < 0.316 µM

SMILES: C=CCNc1ccc(-c2nc(-c3ccc4[nH]nnc4c3)no2)cc1C#N [Compound 145, 5-(3-(1H-benzo[d] [1,2,3]triazol-5-yl)-1,2,4-oxadiazol-5-yl)-2-(allylamino)benzonitrile]
- Emax [1, 4]: < 75%
- EC50 ([1]; potency): < 10 µM
- Emax ([2]; inhibition of cAMP production): > 75%
- EC50 [2, 5]: < 0.316 µM

SMILES: CC(C)Nc1ccc(-c2nnc(-c3ccc4c(c3)C(=O)NCC4)o2)cc1C#N [Compound 638, 5-[5-(1-oxo-1,2,3,4-tetrahydroisoquinolin-7-yl)-1,3,4-oxadiazol-2-yl]-2-[(propan-2-yl)amino]benzonitrile]
- Emax ([1]; CHO-K1): < 75%
- EC50 ([1]; S1P1): > 10 µM
- Emax [2]: < 75%
- EC50 [2, 3]: < 0.316 µM

SMILES: O=C1CCOc2ccc(-c3nc(-c4ccncc4)no3)cc21 [Compound 57, 6-[3-(pyridin-4-yl)-1,2,4-oxadiazol-5-yl]-3,4-dihydro-2H-1-benzopyran-4-one]
- Emax [1, 4]: < 75%
- EC50 ([1]; potency): > 10 µM
- Emax ([2]; inhibition of cAMP production): < 75%
- EC50 [2, 5]: > 0.316 µM

SMILES: COc1ccccc1-c1noc(-c2cnc3c(c2)nnn3C(C)C)n1 [Compound 383, 3-(2-methoxyphenyl)-5-[3-(propan-2-yl)-3H-[1,2,3]triazolo[4,5-b]pyridin-6-yl]-1,2,4-oxadiazole]
- Emax ([1]; CHO-K1): > 75%
- EC50 ([1]; S1P1): < 10 µM
- Emax [2]: > 75%
- EC50 [2, 3]: < 0.316 µM

SMILES: COc1ccccc1-c1csc(-c2ccc3c(ccn3C(C)C)n2)n1 [Compound 411, 2-(1-isopropyl-1H-pyrrolo[3,2-b]pyridin-5-yl)-4-(2-methoxyphenyl)thiazole]
- Emax ([1]; CHO-K1): < 75%
- EC50 ([1]; S1P1): > 10 µM
- Emax [2]: < 75%
- EC50 [2, 3]: > 0.316 µM

SMILES: COc1cc(-c2noc(-c3ccc4c(c3)nnn4C3CC3)n2)ccn1 [Compound 155, 1-cyclopropyl-5-[3-(2-methoxypyridin-4-yl)-1,2,4-oxadiazol-5-yl]-1H-1,2,3-benzotriazole]
- Emax [1, 4]: < 75%
- EC50 ([1]; potency): > 10 µM
- Emax ([2]; inhibition of cAMP production): < 75%
- EC50 [2, 5]: > 0.316 µM

SMILES: CCC1(CC)CC(=O)c2cc(-c3nc(-c4ccc5[nH]c(=O)[nH]c5c4)no3)ccc2O1 [Compound 539, 5-(5-(2,2-diethyl-4-oxochroman-6-yl)-1,2,4-oxadiazol-3-yl)-1H-benzo[d]imidazol-2(3H)-one]
- Emax ([1]; CHO-K1): < 75%
- EC50 ([1]; S1P1): < 10 µM
- Emax [2]: < 75%
- EC50 [2, 3]: < 0.316 µM

SMILES: CCn1nnc2cc(-c3noc(-c4ccccc4Br)n3)ccc21 [Compound 2, 5-(2-bromophenyl)-3-(1-ethyl-1H-benzo[d][1,2,3]triazol-5-yl)-1,2,4-oxadiazole]
- EC50 ([1]; potency): < 10 µM
